Experimental data reported in patent publication US20250154099A1, “PREPARATION METHOD OF 2-PHENYLINDOLE DERIVATIVES AND APPLICATION THEREOF” (Shihezi University, priority 2022, published 2025).
Converted amounts (≈) assume the structure as drawn. Where two headings read alike, the source gives them in different places.

Columns and labels:
[1] = test system: Drug-resistant Candida albicans CA10; assay: MIC by microdilution method, drug-resistant Candida albicans CA10; format: cell-based; conditions: clinically isolated azole multi-drug resistant strain CA10; 24 h
Source text: (§1) Used bacteria: including drug-resistant bacteria and sensitive bacteria: the used sensitive strains include Cryptococcus neoformans BNCC225501, Candida albicans BNCC186382, Aspergillus fumigatus Fresenius BNCC338385, Escherichia coli BNCC336902, Staphylococcus aureus BNCC186335 and Pseudomonas aeruginosa Migula BNCC337940, and the used drug-resistant Candida albicans is clinically isolated azole multi-drug resistant Candida albicans (CA10) donated by Qianfoshan Hospital in Shandong Province. The strains are stored in normal saline containing 20% glycerol at −80° C. for a long time. Before operation, the strains are lined and transferred to a YPD solid plate, and subjected to static culture at 30° C. for 24 h; single colonies are selected and transferred to a YPD liquid medium, and cultured at 200 rpm at 30° C. overnight; and the overnight cultured bacterial solution is inoculated into a new YPD liquid medium at a ratio of about 1:100, and subjected to shaking culture at 200 rpm at 30° C. for 4 h so that Candida albicans is in a logarithmic phase.
(§2) Culture medium: the culture medium used by the microdilution method is RPMI-1640 culture medium (Gibco).
(§3) 1.2 Operation and results of detection of minimum inhibitory concentration (MIC) of the compounds and the azole drugs by the microdilution method: the MIC of the synthesized compound and the azole drug fluconazole for the standard strains is detected by the microdilution method according to fungal sensitivity detection method (M27-A3) established by the Clinical and Laboratory Standards Institute (CLSI). Specific steps are as follows: the prepared strain concentration is adjusted to 0.5-2.5×10^3 CFU/mL by using RPMI-1640 medium. 200 μL of bacterial solution containing the highest concentration of the drug to be detected is added into the first well of a 96-well plate, and 100 μL of blank bacterial solution without drug is added into each of the other wells; the bacterial solution is diluted to a series of concentration gradients by a double gradient dilution method; the well plate is subjected to static culture at constant temperature of 35° C. for 24 h; after the absorbance (OD) of each concentration gradient at 570 nm is detected by a microplate reader and the absorbance of a blank medium is subtracted, the growth rate=dosing hole value/control hole value ×100%, the inhibition rate=1−growth rate, and the minimum concentration with the inhibition rate greater than 80% is the minimum inhibitory concentration (MIC) value.

[2] = test system: Escherichia coli BNCC336902; assay: MIC by microdilution method, sensitive Escherichia coli; format: cell-based; conditions: read-out: MIC Escherichia coli
Source text: as §1, §2, §3

[3] = test system: Candida albicans BNCC186382; assay: MIC by microdilution method, sensitive Candida albicans; format: cell-based; conditions: Candida albicans, read-out: MIC Candida albicans
Source text: as §1, §2, §3

[4] = test system: Pseudomonas aeruginosa Migula BNCC337940; assay: MIC by microdilution method, sensitive Pseudomonas aeruginosa Migula; format: cell-based; conditions: 24 h, read-out: MIC Pseudomonas aeruginosa Migula
Source text: as §1, §2, §3

[5] = test system: RAW 264.7 murine macrophage cells; assay: MTT cytotoxicity test on RAW 264.7; format: cell-based, mouse; conditions: for IC50: Mus musculus, RAW264.7, 24 h, read-out: IC50 RAW 264.7 cell viability
Procedure: 3.1.1 Cell line: RAW 264.7 murine macrophage cells are donated by Shihezi University College of Pharmacy, and cultured in a 37° C. constant temperature incubator with high glucose DMEM medium (Gibco), 10% FBS serum (Gibco) and 5% CO2, and subculturing and related experimental operation are conducted when cell fusion degree reaches about 70-80%.
3.1.2 Materials and reagents: fetal bovine serum (American BI company), DMEM high glucose medium (American Gibco company), penicillin-streptomycin solution (Shanghai Solarbio company), PBS buffer solution (American Gibco company), isopropyl alcohol (analytically pure), dimethyl sulfoxide (DMSO) (Shanghai Solarbio company), and MTT powder (Shanghai Solarbio company).
Logarithmic RAW 264.7 cells are taken; cell suspension is prepared with a complete medium; the concentration of the cell suspension is adjusted to about 5×10^4 cells/mL; 200 μl of cell suspension is added into each hole of the 96-well culture plate and cultured in 5% CO2 in an incubator at 37° C. for about 24 h until the cells grow to the cell wall (at density of 50%); the medium is absorbed by a 5 ml needle tube or negative pressure; RAW 264.7 is divided into a blank group, a solvent control group and a drug administration group; in the blank group, there is no cell, and a medium, MTT and DMSO are added; in the solvent control group, cells, the same concentration of drug dissolving media, culture solution, MTT and DMSO are added; in the drug administration group, medical solution for diluting the concentration gradient with serum-free medium (containing 1% PE) is added; each concentration shall set at least 3 complex wells; 100 μl of medical solution is added into each well; and the culture plate is continued to be incubated in the incubator for 24 h. […] 100 μl of DMSO is added into each well to dissolve formazan crystals, and shaken in a shaker for 10 min at low speed to fully dissolve the crystals. The absorbance (OD) value of each well at 490 nm is determined by the microplate reader, and the cell viability is calculated by the formula: Cell viability (%)=(OD drug administration group−OD blank group)/(OD solvent control group−OD blank group)× 100%.
OD values at 490 nm are determined by the experimental method in each group, and the data are subjected to one-way analysis of variance by Graphpad prism 8.0 software.

Candida albicans CA10 = assay: Checkerboard microdilution assay of compound combined with fluconazole, FICI model; format: cell-based; conditions: for MIC of compound combined: compound concentration in combination with fluconazole; for MIC of compound combined / MIC of azole (fluconazole) combined: inhibition rate about 80%; for FICI: compound plus fluconazole; for MIC of azole (fluconazole) combined: fluconazole concentration in combination with the compound; for MIC: Candida albicans
Procedure: The concentration of Candida albicans CA10 is adjusted to 0.5-2.5×10^3 CFU/mL by using RPMI-1640 medium, and the diluted bacterial solution is used for preparing a working solution of the compound and the azole drug with double concentration gradient. 50 μl of working solution of double concentration of azole drugs and working solution of double concentration of the compound to be detected at each concentration gradient are added in the longitudinal (A-H) direction and transverse (1-12) direction of the 96-well plate respectively, so that the final drug concentration range of fluconazole is 4-64 μg/ml, and the drug concentration range of the compound is 256-16 μg/ml. The 96-well plate is cultured in a constant temperature incubator at 35° C. for 24 h. The amount of viable bacteria is detected with an XTT cell proliferation assay kit, and the absorbance of each well at 490 nm wavelength is detected by the microplate reader. Growth rate=dosing well value/control well value×100%, and inhibition rate=1−growth rate. The MIC when the inhibition rate is about 80% is a break point of the combination of two drugs.
The combination data of the compound and the azole drug collected by the checkerboard microdilution assay are analyzed by an FICI (fractional inhibitory concentration index) model, and the interaction effects are evaluated.
The FICI model can be expressed by the following formula: […]
Wherein: MICA and MICB are MIC values of drug A and drug B used separately, while MICAB and MICBA are the concentrations of drug A and drug B corresponding to the minimum effective dose of the combination of drug A and drug B.

[6] = test system: Cryptococcus neoformans BNCC225501; assay: MIC by microdilution method, sensitive Cryptococcus neoformans; format: cell-based; conditions: Cryptococcus neoformans, read-out: MIC Cryptococcus neoformans
Source text: as §1, §2, §3

[7] = test system: Aspergillus fumigatus Fresenius BNCC338385; assay: MIC by microdilution method, sensitive Aspergillus fumigatus Fresenius; format: cell-based; conditions: Aspergillus fumigatus, 24 h, read-out: MIC Aspergillus fumigatus Fresenius
Source text: as §1, §2, §3

[8] = test system: Staphylococcus aureus BNCC186335; assay: MIC by microdilution method, sensitive Staphylococcus aureus; format: cell-based; conditions: read-out: MIC Staphylococcus aureus
Source text: as §1, §2, §3

[9] = BNCC336902, sensitive strain, 35° C., 24 h, minimum concentration with inhibition rate greater than 80%
[10] = BNCC186382, sensitive strain, 35° C., 24 h, minimum concentration with inhibition rate greater than 80%
[11] = sensitive strain, 35° C., minimum concentration with inhibition rate greater than 80%
[12] = CA10, compound alone, read-out: MIC of compound used separately
[13] = BNCC225501, sensitive strain, 35° C., 24 h, minimum concentration with inhibition rate greater than 80%
[14] = BNCC186335, sensitive strain, 35° C., 24 h, minimum concentration with inhibition rate greater than 80%

Cc1ccccc1-c1cc2ccccc2[nH]1 [Compound 2]
MIC80 Drug-resistant Candida albicans CA10 [1]: 32 µg/mL (≈ 154 µM)
MIC ([2]; BNCC336902, 24 h): 8 µg/mL (≈ 38.6 µM)
MIC ([3]; BNCC186382, 24 h): 4 µg/mL (≈ 19.3 µM)
MIC [4]: 256 µg/mL (≈ 1240 µM)
IC50 [5]: 50 µM
MIC of compound combined (Candida albicans CA10; CA10): 8 µg/mL
FICI (Candida albicans CA10; CA10): 0.313
MIC of azole (fluconazole) combined (Candida albicans CA10; CA10): 8 µg/mL
MIC (Candida albicans CA10; CA10, read-out: MIC of compound used separately): 32 µg/mL
MIC ([6]; BNCC225501, 24 h): 2 µg/mL (≈ 9.65 µM)
MIC [7]: 16 µg/mL (≈ 77.2 µM)
MIC ([8]; BNCC186335, 24 h): 8 µg/mL (≈ 38.6 µM)

Clc1ccc2cc(-c3ccccc3)[nH]c2c1 [Compound 4]
MIC80 Drug-resistant Candida albicans CA10 [1]: 32 µg/mL (≈ 141 µM)
MIC [2, 9]: 16 µg/mL (≈ 70.3 µM)
MIC [3, 10]: 16 µg/mL (≈ 70.3 µM)
MIC [4, 11]: 16 µg/mL (≈ 70.3 µM)
toxicity to RAW 264.7 cells ([5]; 24 h): no obvious toxicity
IC50 [5]: 100 µM
MIC of compound combined (Candida albicans CA10; CA10): 16 µg/mL
FICI (Candida albicans CA10; CA10): 0.563
MIC of azole (fluconazole) combined (Candida albicans CA10; CA10): 8 µg/mL
MIC (Candida albicans CA10; [12]): 32 µg/mL
sensitivity of clinical multi-drug resistant strain CA10 to the azole drug (Candida albicans CA10; combination with fluconazole): can improve the sensitivity
MIC [6, 13]: 16 µg/mL (≈ 70.3 µM)
MIC [7, 11]: 8 µg/mL (≈ 35.1 µM)
MIC [8, 14]: 8 µg/mL (≈ 35.1 µM)

Fc1ccc2cc(-c3ccccc3)[nH]c2c1 [Compound 5]
MIC80 Drug-resistant Candida albicans CA10 [1]: 256 µg/mL (≈ 1210 µM)
MIC [2, 9]: 16 µg/mL (≈ 75.7 µM)
MIC [3, 10]: 16 µg/mL (≈ 75.7 µM)
MIC [4, 11]: 256 µg/mL (≈ 1210 µM)
toxicity to RAW 264.7 cells ([5]; 24 h): no obvious toxicity
cell proliferation of RAW 264.7 ([5]; 24 h, different concentrations): may inhibit cell proliferation in a concentration-dependent way
IC50 [5]: 12.5 µM
MIC of compound combined (Candida albicans CA10; CA10): 64 µg/mL
FICI (Candida albicans CA10; CA10): 0.313
MIC of azole (fluconazole) combined (Candida albicans CA10; CA10): 8 µg/mL
MIC (Candida albicans CA10; [12]): > 256 µg/mL
MIC [6, 13]: 256 µg/mL (≈ 1210 µM)
MIC [7, 11]: 16 µg/mL (≈ 75.7 µM)
MIC [8, 14]: 32 µg/mL (≈ 151 µM)
